Measurements published in paper PMC13013135, “[^99mTc]Tc-PSMA-HSG for PSMA-targeted Hybrid Surgical Guidance: a new addition to the PSMA-I&S/I&T family” (European Journal of Nuclear Medicine and Molecular Imaging, 2025).
Where “and” joins values, the source holds several entries; their conditions need not be identical. Identical values can stand only once. Like-named read-outs stand apart in the source and are kept apart here.

What was measured:
[1] = Lipophilicity, modified shake-flask method; type: physicochemical
Experimental: The lipophilicity of [^99mTc]Tc-PSMA-HSG was determined via a modified shake-flask method as described.

mouse serum = assay: Plasma protein binding (B50), ultrafiltration, mouse serum; type: in vitro ADME
Experimental: A detailed experimental procedure is provided in the Supplementary Material. […] Briefly, protein solutions (maximum concentration: […] Samples were briefly vortexed and incubated for 30 min at 37 °C. […] The filter units were then removed from the centrifugal tubes and washed twice with 300 µL PBS to recover the protein fraction. The activity in the filtrate, filter and protein fraction were then quantified using a γ-counter. […] The percentages of radioligand bound to the respective proteins are represented as means ± standard deviation (SD) of three independent experiments.

[2] = tested on: LNCaP xenograft bearing NSG mice; assay: Small animal SPECT/CT with 2-PMPA blocking; type: in vivo, mouse; details: 1 nmol peptide, 1 µmol 2-PMPA, SPECT/CT 2–4 h p.i.
Experimental: SPECT/CT images were acquired using an Albira Si PET/SPECT/CT (Bruker Biospin Corporation, Woodbridge, CT, USA) instrument. Mice were injected with the respective ^99mTc-labeled tracer (24–34 MBq; the injected peptide amount was kept constant at 1 nmol/animal), with (blocking) or without (control) coinjection of 226 µg (1 µmol) 2-PMPA. […] For SPECT imaging, static acquisitions of 2 h (accumulation of 1–2 × 10^6 events) were acquired with the following parameters: photopeak at 140 keV ± 30%, axial FOV 82.5 mm using a single pinhole collimator. For reconstruction, an ordered subset expectation-maximization algorithm (OSEM) with two iterations was used, and scatter correction was applied. For CT, the following parameters were used: 400 µA intensity and 35 kV voltage, 600 projections. Images were reconstructed using a filtered back-projection (FBP) algorithm with de-ringing correction. Fused representative SPECT/CT images were acquired using the PMOD software (PMOD technologies, version 3.709, Zurich, Switzerland).

PSMA [3] = biological target: T1, PSMA (Homo sapiens, UniProt Q04609); type: in vivo; set-up: Five patients with a diagnosis of initial (n = 4) or biochemical recurrence of (n = 1) histologically proven prostate cancer; from tissue; host or cells: prostate cancer patients: primary tumour, lymph nodes, resected tissue sections
T1 sequence (Q04609 whole entry): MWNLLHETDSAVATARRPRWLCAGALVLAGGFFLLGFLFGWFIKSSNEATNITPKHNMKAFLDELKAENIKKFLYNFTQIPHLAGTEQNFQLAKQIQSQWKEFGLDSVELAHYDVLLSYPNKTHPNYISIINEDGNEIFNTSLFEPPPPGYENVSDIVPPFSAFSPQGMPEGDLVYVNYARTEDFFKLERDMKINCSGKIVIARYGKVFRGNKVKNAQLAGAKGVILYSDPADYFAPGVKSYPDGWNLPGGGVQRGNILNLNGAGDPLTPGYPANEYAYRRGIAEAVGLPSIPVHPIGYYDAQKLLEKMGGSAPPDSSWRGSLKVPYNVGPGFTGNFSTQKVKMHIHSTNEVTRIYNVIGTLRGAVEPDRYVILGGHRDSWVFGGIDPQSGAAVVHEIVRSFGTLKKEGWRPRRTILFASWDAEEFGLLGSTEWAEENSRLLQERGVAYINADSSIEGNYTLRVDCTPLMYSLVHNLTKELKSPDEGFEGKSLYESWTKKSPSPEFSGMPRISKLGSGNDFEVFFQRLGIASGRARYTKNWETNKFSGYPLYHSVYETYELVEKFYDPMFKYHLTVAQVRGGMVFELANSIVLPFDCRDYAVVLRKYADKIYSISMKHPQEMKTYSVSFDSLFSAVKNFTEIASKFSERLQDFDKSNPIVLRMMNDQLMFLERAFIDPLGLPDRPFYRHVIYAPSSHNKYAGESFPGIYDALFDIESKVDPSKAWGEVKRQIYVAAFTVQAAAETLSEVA
Description: For all patients, radioguided surgery had been recommended by the local multidisciplinary tumor board. […] Attenuation maps were generated on the basis of low-dose CT. For a detailed protocol of imaging parameters and the dosimetry protocol please refer to the Supplementary Material. […] A scatter window ranging from 114 to 126 keV was additionally acquired for planar and SPECT imaging. For SPECT, the imaging field of view was from neck to upper thighs. At each bed position, 60 views were acquired, with a duration of 8 s each. Subsequently, images were reconstructed using an ordered subset expectation maximisation (OSEM) algorithm (2 iterations and 10 subsets) with a Butterworth filter (fc = 0.48, n = 10). Scatter and attenuation correction was applied. For whole-body planar imaging, a scan speed of 30 cm/min was employed until 60 min post-injection, after which the acquisition speed was moderated to 12 cm/min for any further data collection.

PSMA [4] = biological target: T1, PSMA; assay: Radioguided surgery (RGS) with gamma probe, ex vivo fluorescence microscopy; type: in vivo; set-up: Five patients with a diagnosis of initial (n = 4) or biochemical recurrence of (n = 1) histologically proven prostate cancer; from tissue; host or cells: prostate cancer patients: primary tumour, lymph nodes, resected tissue sections
Experimental: Radioguided open surgery was performed the day after tracer injection by an experienced urologic surgeon (DW; more than 20 years of surgical experience) in collaboration with a nuclear medicine physician. Using a conventional gamma probe (C-Trak®, SanuC GmbH, Jahnsdorf, Germany), suspicious lymph nodes (defined as spots with signal-to-background ratios ≥ 2) were excised separately followed by pelvic lymph node dissection. […] Fresh frozen tissue sections were prepared using a standard cryosectioning protocol with 10–20 μm sections mounted for fluorescence imaging. These slides were stored on dry ice prior to fluorescence microscopy to preserve tissue integrity. Fluorescence microscopy of patient samples was performed using an Axioscan 7 slide scanner (Zeiss) equipped with a Colibri 7 LED light source and a 20×/0.8 NA Plan-Apochromat objective. Cy5 fluorescence was acquired using a filter set with excitation 640/30 nm, dichroic mirror 660 nm, and emission 690/50 nm. Image acquisition and analysis were performed using ZEN Blue 3.5 software (Zeiss). For immunohistochemical analysis, adjacent formalin-fixed, paraffin-embedded tissue sections were cut at 2 μm thickness and stained for PSMA (clone EP192 BioSB, BIOO Scientific) using a Ventana Benchmark automated platform (Bio SB, Santa Barbara, CA, USA). Conventional hematoxylin and eosin (H&E) and immunohistochemical (for PSMA) staining was performed on corresponding tissue sections to enable morphologic correlation and verification of target expression, respectively. For further information on immunhistochemical staining please refer to the Supplementary Material.

[5] = exploratory cohort, five patients
[6] = subjects with newly diagnosed PCa

negative predictive value (NPV) of SPECT/CT (PSMA [3]; [5]): 94%
positive predictive value (PPV) of SPECT/CT (PSMA [3]; [5]): 100%
sensitivity of SPECT/CT (PSMA [3]; [5]): 33%
specificity of SPECT/CT (PSMA [3]; [5]): 100%
PET-suspicious lymph nodes positive in scintigraphy (PSMA [3]; [6]): 2/10
primary tumor delineated / visualized (PSMA [3]; [6]): 3 out of 4 and 3/4
RGS, ex vivo activity, left external iliac LN (PSMA [4]; Patient #1): 190 cps
RGS, ex vivo activity, right external iliac LN (PSMA [4]; Patient #1): 230 cps
RGS, ex vivo activity, right iliac LN (2 adjacent LNs) (PSMA [4]; Patient #4): 20 cps
RGS, ex vivo activity, right iliac LN (first listed) (PSMA [4]; Patient #4): 50 cps
RGS, ex vivo activity, right iliac LN (last listed) (PSMA [4]; Patient #4): 15 cps
RGS, in vivo activity measurements (PSMA [4]; Patient #4, 350 µg): No detection of tracer-positive lesions
specificity of uptake in resected lymph nodes, fluorescence microscopy (PSMA [4]; Patient #4, 350 µg): highly PSMA-specific
NPV of RGS (PSMA [4]; [5]): 100%
PPV of RGS (PSMA [4]; [5]): 100%
sensitivity of RGS (abstract: selectivity) (PSMA [4]; [5]): 100%
specificity of RGS (PSMA [4]; [5]): 100%
lymph node metastases in tracer-avid lesions, intraoperative gamma detection (PSMA [4]; in vivo): 6/6
true negative lymph nodes identified by RGS (PSMA [4]; patient sub-cohort): 53/53
true positive lymph nodes identified by RGS (PSMA [4]; patient sub-cohort): 4/4
Compound: C[N+]1=C(/C=C/C=C/C=C2/N(CCCCCC(=O)NCCCC[C@@H](NC(=O)[C@@H](CO)NC(=O)[C@@H](CO)NC(=O)[C@@H](CO)NC(=O)CS)C(=O)N[C@H](Cc3ccc(O)cc3)C(=O)N[C@H](Cc3ccc4ccccc4c3)C(=O)N[C@H](CCCCNC(=O)CCCCCCC(=O)NCCCC[C@H](NC(=O)N[C@@H](CCC(=O)O)C(=O)O)C(=O)O)C(=O)O)c3ccc(S(=O)(=O)[O-])cc3C2(C)C)C(C)(C)c2cc(S(=O)(=O)O)ccc21 [[^99mTc]Tc-PSMA-HSG, metal not drawn]
logD [1]: -2.94
B50 MS (mouse serum): 142 ± 22
PSMA-specificity of tumor uptake, coinjection of 2-PMPA [2]: successfully blocked tumor accumulation
scintigraphy findings (PSMA [3]; Patient #1, 53 µg): Two positive LN in the right and left external iliac region
scintigraphy findings (PSMA [3]; Patient #2, 53 µg): Moderate tracer uptake of the primary No positive LN
scintigraphy findings (PSMA [3]; Patient #3, 53 µg): Moderate tracer uptake of the primary No positive LN
scintigraphy findings (PSMA [3]; Patient #4, 350 µg): No discernible tracer uptake of the primary No discernible tracer uptake in the right iliac LN
scintigraphy findings (PSMA [3]; Patient #5, 250 µg): Moderate tracer uptake of the primary No positive LN
clearance in patients, visual image analysis (PSMA [3]; human, in vivo): swift activity clearance from blood/background via rapid renal excretion
intestinal accumulation in patients (PSMA [3]; human, in vivo): Virtually no intestinal accumulation
RGS, in vivo activity measurements (PSMA [4]; Patient #1, 53 µg): intraoperative detection feasible; after resection no further tracer accumulation detected
RGS, in and ex vivo activity measurements (PSMA [4]; Patient #2, 53 µg): In and ex vivo activity measurements: No positive LN
RGS, in and ex vivo activity measurements (PSMA [4]; Patient #3, 53 µg): In and ex vivo activity measurements: No positive LN
RGS, in and ex vivo activity measurements (PSMA [4]; Patient #5, 250 µg): In and ex vivo activity measurements: No positive LN
